# Results taken from patent US9765092B2, “Tricyclic piperidine compounds” (ACTELION PHARMACEUTICALS LTD, priority 2013, dated 2017).
# Molecular target: human TPH1 (Homo sapiens (Human), UniProt P17752)
# Experiment: Biochemical in vitro assay using fluorescence readout (TPH1 inhibition)
# Conditions: full length human TPH1, 40 μM L-tryptophan, 15° C., 60 minutes, fluorescence at 540 nm; mean if determined several times
# Sequence of human TPH1 (P17752 whole entry): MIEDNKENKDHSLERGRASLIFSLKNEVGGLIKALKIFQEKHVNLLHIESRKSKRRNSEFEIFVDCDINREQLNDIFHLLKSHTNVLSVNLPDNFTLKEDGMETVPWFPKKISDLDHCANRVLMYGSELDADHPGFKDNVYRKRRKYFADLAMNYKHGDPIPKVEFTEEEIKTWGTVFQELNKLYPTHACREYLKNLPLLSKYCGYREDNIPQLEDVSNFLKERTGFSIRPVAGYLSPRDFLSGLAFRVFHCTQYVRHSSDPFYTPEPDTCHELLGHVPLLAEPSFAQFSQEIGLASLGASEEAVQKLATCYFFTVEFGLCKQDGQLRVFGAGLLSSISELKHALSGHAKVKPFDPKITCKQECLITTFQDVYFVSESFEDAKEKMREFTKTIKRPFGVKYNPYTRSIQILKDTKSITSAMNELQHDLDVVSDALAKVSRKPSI
row,Compound,IC50 [nM]
1,"Cc1nn2c3c(nc2s1)CCN(C(=O)COc1ccc(N2CCOCC2)nc1Cl)C3c1ccc(CN(C)C)s1 (centres unmarked) [Example 1.36.1, 2-((2-Chloro-6-morpholinopyridin-3-yl)oxy)-1-(5-(5-((dimethylamino)-methyl)thiophen-2-yl)-2-methyl-7,8-dihydro-[1,3,4]thiadiazolo[2′,3′:2,3]imidazo[4,5-c]pyridin-6(5H)-yl)-ethanone]",384
2,"Cc1nn2c3c(nc2s1)CCN(C(=O)COc1ccc(C2CC2)cc1Cl)C3c1ccc(Cl)cc1F (centres unmarked) [Example 1.4.34, 1-(5-(4-Chloro-2-fluorophenyl)-2-methyl-7,8-dihydro-[1,3,4]thiadiazolo[2′,3′:2,3]imidazo[4,5-c]pyridin-6(5H)-yl)-2-(2-chloro-4-cyclopropylphenoxy)-ethanone]",4
3,"Cc1nn2c3c(nc2s1)CCN(C(=O)COc1ccc(C(=O)NCC#N)nc1Cl)C3c1ccc(Cl)cc1F (centres unmarked) [Example 1.4.23, 6-Chloro-5-(2-(5-(4-chloro-2-fluorophenyl)-2-methyl-7,8-dihydro-[1,3,4]thiadiazolo[2′,3′:2,3]imidazo[4,5-c]pyridin-6(5H)-yl)-2-oxoethoxy)-N-(cyano-methyl)picolinamide]",247

# Same assay, conditions: human TPH1, fluorescence readout
row,Compound,IC50 [nM]
1,"1-(5-(4-chloro-2-fluorophenyl)-7,8-dihydrothiazolo[2′,3′:2,3]imidazo[4,5-c]pyridin-6(5H)-yl)-2-(2-ethyl-4-fluorophenoxy)ethanone [Example 6.4.1]",14
2,"Cc1nn2c3c(nc2s1)CCN(C(=O)COc1ccc(NS(C)(=O)=O)cc1Cl)C3c1ncc(Cl)cc1F (centres unmarked) [Example 1.33.7, N-(3-chloro-4-(2-(5-(5-chloro-3-fluoropyridin-2-yl)-2-methyl-7,8-dihydro-[1,3,4]thiadiazolo[2′,3′:2,3]imidazo[4,5-c]pyridin-6(5H)-yl)-2-oxoethoxy)phenyl)methanesulfonamide]",13
3,"Cc1nn2c3c(nc2s1)CCN(C(=O)COc1ccc(N(C)C)nc1Cl)C3c1cc(CN(C)C)cs1 (centres unmarked) [Example 1.8.4, 2-((2-chloro-6-(dimethylamino)pyridin-3-yl)oxy)-1-(5-(4-((dimethylamino)methyl)thiophen-2-yl)-2-methyl-7,8-dihydro-[1,3,4]thiadiazolo[2′,3′:2,3]imidazo[4,5-c]pyridin-6(5H)-yl)ethanone]",106
4,"CS(=O)(=O)Nc1ccc(OCC(=O)N2CCc3nc4scnn4c3C2c2ccc(Cl)cc2F)c(Cl)n1 (centres unmarked) [Example 2.1.1, N-(6-chloro-5-(2-(5-(4-chloro-2-fluorophenyl)-7,8-dihydro-[1,3,4]thiadiazolo[2′,3′:2,3]imidazo[4,5-c]-pyridin-6(5H)-yl)-2-oxoethoxy)pyridin-2-yl)methanesulfonamide]",11
5,"O=C(COc1ccc(C(F)(F)F)nc1Cl)N1CCc2nc3sccn3c2C1c1ncc(C2CC2)cc1F (centres unmarked) [Example 6.7.1, 2-((2-chloro-6-(trifluoromethyl)pyridin-3-yl)oxy)-1-(5-(5-cyclopropyl-3-fluoropyridin-2-yl)-7,8-dihydrothiazolo-[2′,3′:2,3]imidazo[4,5-c]pyridin-6(5H)-yl)ethanone]",11
6,"CCc1ncccc1OCC(=O)N1CCc2nc3sccn3c2C1c1ccc(Cl)cc1F (centres unmarked) [Example 6.4.7, 1-(5-(4-chloro-2-fluorophenyl)-7,8-dihydrothiazolo-[2′,3′:2,3]imidazo[4,5-c]pyridin-6(5H)-yl)-2-((2-ethylpyridin-3-yl)oxy)ethanone]",6
7,"CS(=O)(=O)Nc1ccc(OCC(=O)N2CCc3nc4sccn4c3C2c2sccc2F)c(Cl)n1 (centres unmarked) [Example 6.8.4, N-(6-chloro-5-(2-(5-(3-fluorothiophen-2-yl)-7,8-dihydrothiazolo[2′,3′:2,3]imidazo[4,5-c]pyridin-6(5H)-yl)-2-oxoethoxy)pyridin-2-yl)methanesulfonamide]",7
8,"Cc1nn2c3c(nc2s1)CCN(C(=O)COc1ccc(C(F)(F)F)nc1Cl)C3c1ncc(C2CC2)cc1F (centres unmarked) [Example 1.14.3, 2-((2-chloro-6-(trifluoromethyl)pyridin-3-yl)oxy)-1-(5-(5-cyclopropyl-3-fluoropyridin-2-yl)-2-methyl-7,8-dihydro-[1,3,4]thiadiazolo[2′,3′:2,3]imidazo[4,5-c]pyridin-6(5H)-yl)ethanone]",17
9,"Cc1nn2c3c(nc2s1)CCN(C(=O)C1(Oc2ccc(NS(C)(=O)=O)nc2Cl)CC1)C3c1ccc(Cl)cc1F (centres unmarked) [Example 1.4.54, N-(6-chloro-5-(1-(5-(4-chloro-2-fluorophenyl)-2-methyl-5,6,7,8-tetrahydro-[1,3,4]thiadiazolo[2′,3′:2,3]imidazo[4,5-c]pyridine-6-carbonyl)cyclopropoxy)pyridin-2-yl)methanesulfonamide]",37
10,"COC(C)(C)c1ccc(C2c3c(nc4sc(C)nn34)CCN2C(=O)COc2ccc(C(=O)NC3CC3)nc2Cl)c(F)c1 (centres unmarked) [Example 1.81.1, 6-chloro-N-cyclopropyl-5-(2-(5-(2-fluoro-4-(2-methoxypropan-2-yl)phenyl)-2-methyl-7,8-dihydro-[1,3,4]thiadiazolo[2′,3′:2,3]imidazo[4,5-c]pyridin-6(5H)-yl)-2-oxoethoxy)picolinamide]",27
11,"CCc1ncccc1OCC(=O)N1CCc2nc3sc(C)nn3c2C1c1cnc(N2CCOCC2)s1 (centres unmarked) [Example 1.7.1, 2-((2-ethylpyridin-3-yl)oxy)-1-(2-methyl-5-(2-morpholinothiazol-5-yl)-7,8-dihydro-[1,3,4]thiadiazolo[2′,3′:2,3]imidazo[4,5-c]pyridin-6(5H)-yl)ethanone]",337
12,"CCc1nc(NS(C)(=O)=O)ccc1OCC(=O)N1CCc2nc3sc(C)nn3c2C1c1sccc1F (centres unmarked) [Example 1.71.2, N-(6-ethyl-5-(2-(5-(3-fluorothiophen-2-yl)-2-methyl-7,8-dihydro-[1,3,4]thiadiazolo[2′,3′:2,3]imidazo[4,5-c]pyridin-6(5H)-yl)-2-oxoethoxy)pyridin-2-yl)methanesulfonamide]",7
13,"Cc1nn2c3c(nc2s1)CCN(C(=O)COc1ccc(C(=O)NC2CC2)nc1C1CC1)C3c1ccc(Cl)cc1F (centres unmarked) [Example 1.4.55, 5-(2-(5-(4-chloro-2-fluorophenyl)-2-methyl-7,8-dihydro-[1,3,4]thiadiazolo[2′,3′:2,3]imidazo[4,5-c]pyridin-6(5H)-yl)-2-oxoethoxy)-N,6-dicyclopropylpicolinamide]",9
14,"CCc1ncccc1OCC(=O)N1CCc2nc3sc(C)nn3c2C1c1ccc(Cl)cc1F (centres unmarked) [Example 1.4.5, 1-(5-(4-chloro-2-fluorophenyl)-2-methyl-7,8-dihydro-[1,3,4]thiadiazolo[2′,3′:2,3]imidazo[4,5-c]pyridin-6(5H)-yl)-2-((2-ethylpyridin-3-yl)oxy)ethanone]",13
15,"Cc1nn2c3c(nc2s1)CCN(C(=O)COc1ccc(N2CCOCC2)cc1Cl)C3c1c(C)noc1C (centres unmarked) [Example 1.5.1, 2-(2-chloro-4-morpholinophenoxy)-1-(5-(3,5-dimethylisoxazol-4-yl)-2-methyl-7,8-dihydro[1,3,4]thiadiazolo[2′,3′:2,3]imidazo[4,5-c]pyridin-6(5H)-yl)ethanone]",22
16,"COC1(C)CN(c2ccc(OCC(=O)N3CCc4nc5sc(C)nn5c4C3c3ccc(Cl)cc3F)c(Cl)n2)C1 (centres unmarked) [Example 1.4.43, 1-(5-(4-chloro-2-fluorophenyl)-2-methyl-7,8-dihydro-[1,3,4]thiadiazolo[2′,3′:2,3]imidazo[4,5-c]pyridin-6(5H)-yl)-2-((2-chloro-6-(3-methoxy-3-methylazetidin-1-yl)pyridin-3-yl)oxy)ethanone]",35
17,"Cc1nn2c3c(nc2s1)CCN(C(=O)COc1ccnc2c(F)ccc(F)c12)C3c1ccc(Cl)cc1F (centres unmarked) [Example 1.4.65, 1-(5-(4-chloro-2-fluorophenyl)-2-methyl-7,8-dihydro-[1,3,4]thiadiazolo[2′,3′:2,3]imidazo[4,5-c]pyridin-6(5H)-yl)-2-((5,8-difluoroquinolin-4-yl)oxy)ethan-1-one]",31
18,"Cc1nn2c3c(nc2s1)CCN(C(=O)COc1ccc(N2CCOCC2)nc1Cl)C3c1ncccc1F (centres unmarked) [Example 1.35.1, 2-((2-chloro-6-morpholinopyridin-3-yl)oxy)-1-(5-(3-fluoropyridin-2-yl)-2-methyl-7,8-dihydro-[1,3,4]thiadiazolo [2′,3′:2,3]imidazo[4,5-c]pyridin-6(5H)-yl)ethanone]",6
19,"COC(=O)c1cnc(C2c3c(nc4sc(C)nn34)CCN2C(=O)COc2ccc(N3CC(F)(F)C3)nc2Cl)s1 (centres unmarked) [Example 1.28.4, Methyl 2-(6-(2-((2-chloro-6-(3,3-difluoroazetidin-1-yl)pyridin-3-yl)oxy)acetyl)-2-methyl-5,6,7,8-tetrahydro-[1,3,4]thiadiazolo[2′,3′:2,3]imidazo[4,5-c]pyridin-5-yl)thiazole-5-carboxylate]",17
20,"Cc1nn2c3c(nc2s1)CCN(C(=O)COc1cccc2c1ccn2C)C3c1ccc(Cl)cc1F (centres unmarked) [Example 1.4.62, 1-(5-(4-chloro-2-fluorophenyl)-2-methyl-7,8-dihydro-[1,3,4]thiadiazolo[2′,3′:2,3]imidazo[4,5-c]pyridin-6(5H)-yl)-2-((1-methyl-1H-indol-4-yl)oxy)ethan-1-one]",15
21,"COc1ccc(C2c3c(nc4sc(C)nn34)CCN2C(=O)COc2ccc(NS(C)(=O)=O)nc2Cl)c(F)c1 (centres unmarked) [Example 1.3.4, N-(6-chloro-5-(2-(5-(2-fluoro-4-methoxyphenyl)-2-methyl-7,8-dihydro-[1,3,4]thiadiazolo[2′,3′:2,3]imidazo[4,5-c]pyridin-6(5H)-yl)-2-oxoethoxy)pyridin-2-yl)methanesulfonamide]",8
22,"COC1(c2csc(C3c4c(nc5sc(C)nn45)CCN3C(=O)COc3ccc(N4CCOCC4)nc3Cl)c2)COC1 (centres unmarked) [Example 1.50.1, 2-((2-chloro-6-morpholinopyridin-3-yl)oxy)-1-(5-(4-(3-methoxyoxetan-3-yl)thiophen-2-yl)-2-methyl-7,8-dihydro-[1,3,4]thiadiazolo[2′,3′:2,3]imidazo[4,5-c]pyridin-6(5H)-yl)ethanone]",6
23,"CNC(=O)c1ccc(C2c3c(nc4sc(C)nn34)CCN2C(=O)COc2ccc(N3CCOCC3)nc2Cl)o1 (centres unmarked) [Example 1.42.2, 5-(6-(2-((2-chloro-6-morpholinopyridin-3-yl)oxy)acetyl)-2-methyl-5,6,7,8-tetrahydro-[1,3,4]thiadiazolo[2′,3′:2,3]imidazo[4,5-c]pyridin-5-yl)-N-methylfuran-2-carboxamide]",11
